# According to patent publication US20170121344A1 (Siga Technologies, Inc., priority 2009, published 2017):
# pEC50: −log10 of the molar value. Read-outs that look alike come from different tables or passages of the source.
# Test system: Dengue-2 (Strain New Guinea C)
# Assay: Viral yield assay against Dengue-2 in Vero cells
# Type: cell-based, Dengue virus
# Settings: Dengue virus; for pEC50: read-out: Activity (EC50 class) against Dengue-2 Virus in Vero cells; for EC50: read-out: Activity (EC50 in μM) DENV-2
# Outline: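 Virus yield, titered on Vero cells from cultures harvested at 48 h post infection, gave the EC50. Cultures were infected at MOI 0.1 with dengue-2 and treated with compound or DMSO at 37° C. DENV-1 and DENV-4 were determined similarly.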
# [1] = Vero cells, MOI 0.1, harvested 48 hours post infection
# [2] = DENV2, viral yield assay, Vero cells, MOI 0.1, 48 hours post infection
SMILES,pEC50 [1],EC50 [2] [µM],further results
"CN1CCc2nc3sc(C(=O)NCc4ccccc4Cl)c(N)c3cc2C1 [Compound 113, 3-Amino-6-methyl-5,6,7,8-tetrahydro-thieno[2,3-b][1,6]naphthyridine-2-carboxylic acid 2-chloro-benzylamide]",4.60 to 5.30,,
"Nc1c(C(=O)Nc2ccc(Br)cc2)sc2nc(-c3ccc(Cl)cc3Cl)ccc12 [Compound 654, 3-amino-N-(4-bromophenyl)-6-(2,4-dichlorophenyl)thieno[2,3-b]pyridine-2-carboxamide]",,< 5,
"COc1ccc(Cl)cc1NC(=O)c1sc2nc(-c3ccc(C)cc3)ccc2c1N [Compound 641, 3-amino-N-(5-chloro-2-methoxy-phenyl)-6-(p-tolyl)thieno[2,3-b]pyridine-2-carboxamide]",,< 5,
"CC(C)NC(=O)c1sc2nc3c(c(-c4cccs4)c2c1N)CN(C)CC3 [Compound 273, 3-Amino-6-methyl-4-thiophen-2-yl-5,6,7,8-tetrahydro-thieno[2,3-b][1,6]naphthyridine-2-carboxylic acid isopropylamide]",,,"pEC50 (Vero, 48 h): < 4.60"
"Cc1cc(C)c2c(N)c(C(=O)NCCc3ccccc3)sc2n1 [Compound 257, 3-Amino-4,6-dimethyl-thieno[2,3-b]pyridine-2-carboxylic acid phenethyl-amide]",,,"pEC50 (Vero, 48 h): < 4.60"
"Nc1c(C(=O)NC2CCCCC2)sc2nc3c(cc12)CCCCC3 [Compound 281, 3-amino-N-cyclohexyl-6,7,8,9-tetrahydro-5H-cyclohepta[b]thieno [3,2-e]pyridine-2-carboxamide]",,5 to 25,
"Nc1c(C(=O)N2CCCCC2)sc2nc3c(cc12)CCC3 [Compound 188, (3-Amino-6,7-dihydro-5H-cyclopenta[b]thieno[3,2-e]pyridin-2-yl)-piperidin-1-yl-methanone]",< 4.60,,
"CC(C)NC(=O)c1sc2nc3c(cc2c1N)CN(C)CC3 [Compound 270, 3-Amino-6-methyl-5,6,7,8-tetrahydro-thieno[2,3-b][1,6]naphthyridine-2-carboxylic acid isopropylamide]",< 4.60,,
"COc1ccc(-c2ccc3c(N)c(C(=O)Nc4ccc(F)cc4)sc3n2)cc1OC [Compound 541, 3-amino-6-(3,4-dimethoxyphenyl)-N-(4-fluorophenyl)thieno[2,3-b]pyridine-2-carboxamide]",,,"EC50 (DENV2, Vero, 48 h): < 5 µM"
"COc1ccc(-c2cc(-c3ccccc3)nc3sc(C(N)=O)c(N)c23)cc1 [Compound 125, 3-Amino-4-(4-methoxy-phenyl)-6-phenyl-thieno[2,3-b]pyridine-2-carboxylic acid amide]",< 4.60,,
"COc1cccc(-c2ccc3c(N)c(C(=O)Nc4ccccc4OC)sc3n2)c1 [Compound 504, 3-amino-N-(2-methoxyphenyl)-6-(3-methoxyphenyl)thieno[2,3-b]pyridine-2-carboxamide]",,< 5,
"CCSc1nc2ccc(NC(=O)c3sc4nc(-c5cccc(OC)c5)ccc4c3N)cc2s1 [Compound 567, 3-amino-N-(2-ethylsulfanyl-1,3-benzo-thiazol-6-yl)-6-(3-methoxphenyl)thieno [2,3-b]pyridine-2-carboxamide]",,< 5,
"CN1CCc2nc3sc(C(=O)NCc4ccc(F)cc4)c(N)c3cc2C1 [Compound 14, 3-Amino-6-methyl-5,6,7,8-tetrahydro-thieno[2,3-b][1,6]naphthyridine-2-carboxylic acid 4-fluoro-benzylamide]",> 5.30,,
"COc1ccc(-c2c(C#N)c(N)nc3sc(C(=O)Nc4ccc(F)cc4)c(N)c23)cc1OC [Compound 84, 3,6-Diamino-5-cyano-4-(3,4-dimethoxy-phenyl)-thieno[2,3-b]pyridine-2-carboxylic acid (4-fluoro-phenyl)-amide]",4.60 to 5.30,,
"Cc1cc(C)c2c(N)c(C(=O)N3CCOCC3)sc2n1 [Compound 145, (3-Amino-4,6-dimethyl-thieno[2,3-b]pyridin-2-yl)-morpholin-4-yl-methanone]",< 4.60,,
"CN1CCc2nc3sc(C(=O)Nc4ccc(OC(F)(F)F)cc4)c(N)c3cc2C1 [Compound 30, 3-Amino-6-methyl-5,6,7,8-tetrahydro-thieno[2,3-b][1,6]naphthyridine-2-carboxylic acid (4-trifluoromethoxy-phenyl)-amide]",> 5.30,,
"Nc1c(C(=O)Nc2ccccc2OC(F)(F)F)sc2nc(-c3ccncc3)ccc12 [Compound 487, 3-amino-6-(4-pyridyl)-N-[2-(trifluoromethoxy)phenyl]thieno[2,3-b] pyridine-2-carboxamide]",,< 5,
"COCc1cc(C)nc2sc(C(=O)Nc3ccc4c(c3)OCO4)c(N)c12 [Compound 250, 3-Amino-4-methoxymethyl-6-methyl-thieno[2,3-b]pyridine-2-carboxylic acid benzo[1,3]dioxol-5-ylamide]",< 4.60,,
"Cc1ccc(NC(=O)c2sc3nc4c(cc3c2N)CCCCC4)cc1 [Compound 175, 3-Amino-6,7,8,9-tetrahydro-5H-1-thia-10-aza-cyclohepta[f]indene-2-carboxylic acid p-tolylamide]",< 4.60,,

SMILES,pEC50 [1],EC50 [2] [µM],further results
"CC(C)(C)NC(=O)c1sc2nc3c(cc2c1N)CCCCC3 [Compound 283, 3-amino-N-(tert-butyl)-6,7,8,9-tetrahydro-5H-cyclohepta[b]thieno [3,2-c]pyridine-2-carboxamide]",,< 5,
"CCN(CC)C(=O)c1sc2nc3c(cc2c1N)CN(C(C)C)CC3 [Compound 271, 3-Amino-6-isopropyl-5,6,7,8-tetrahydro-thieno[2,3-b][1,6]naphthyridine-2-carboxylic acid diethylamide]",,,"pEC50 (Vero, 48 h): < 4.60"
"Nc1c(C(=O)Nc2cccc(C(F)(F)F)c2)sc2nc3c(cc12)C(=O)CCC3 [Compound 12, 3-Amino-5-oxo-5,6,7,8-tetrahydro-thieno[2,3-b]quinoline-2-carboxylic acid (3-trifluoromethyl-phenyl)-amide]",,,"pEC50 (Vero, 48 h): > 5.30"
"Cc1cc(C(F)(F)F)nc2sc(C(=O)Nc3ccccc3I)c(N)c12 [Compound 131, 3-Amino-4-methyl-6-trifluoromethyl-thieno[2,3-b]pyridine-2-carboxylic acid (2-iodo-phenyl)-amide]",< 4.60,,
"COc1ccccc1NC(=O)c1sc2nc3c(cc2c1N)CN(C)CC3 [Compound 58, 3-Amino-6-methyl-5,6,7,8-tetrahydro-thieno[2,3-b][1,6]naphthyridine-2-carboxylic acid (2-methoxy-phenyl)-amide]",> 5.30,,
"N#Cc1c(N)nc2sc(C(=O)Nc3ccccc3)c(N)c2c1-c1ccco1 [Compound 375, 3,6-diamino-5-cyano-4-(2-furyl)-N-phenyl-thieno[2,3-b]pyridine-2-carboxamide]",,5 to 25,
"Nc1c(C(=O)Nc2cc(Cl)ccc2Cl)sc2nc(-c3ccc(F)cc3)ccc12 [Compound 605, 3-amino-N-(2,5-dichlorophenyl)-6-(4-fluorophenyl)thieno[2,3-b]pyridine-2-carboxamide]",,< 5,
"C=C(C)Cn1cnc2c(sc3nc4c(cc32)COC(C)(C)C4)c1=O [Compound 203, 8,8-Dimethyl-2-(2-methyl-allyl)-8,9-dihydro-2H,6H-7-oxa-11-thia-2,4,10-triaza-benzo[b]fluoren-1-one]",< 4.60,,
"Cc1ccc(-c2ccc3c(N)c(C(=O)Nc4ccccc4F)sc3n2)cc1 [Compound 649, 3-amino-N-(2-fluorophenyl)-6-(p-tolyl) thieno[2,3-b]pyridine-2-carboxamide]",,< 5,
"CCOC(=O)c1c(NC(=O)c2sc3nc(N)c(C#N)cc3c2N)sc2c1CCCC2 [Compound 148, 2-[(3,6-Diamino-5-cyano-thieno[2,3-b]pyridine-2-carbonyl)-amino]-4,5,6,7-tetrahydro-benzo[b]thiophene-3-carboxylic acid ethyl ester]",< 4.60,,
"Cc1cccc(NC(=O)c2sc3nc(-c4cccs4)ccc3c2N)c1 [Compound 419, 3-amino-N-(m-tolyl)-6-(2-thienyl) thieno[2,3-b]pyridine-2-carboxamide]",,,"EC50 (DENV2, Vero, 48 h): < 5 µM"
"CC(C)N1CCc2nc3sc(C(=O)Nc4cccc(F)c4)c(N)c3cc2C1 [Compound 24, 3-Amino-6-isopropyl-5,6,7,8-tetrahydro-thieno[2,3-b][1,6]naphthyridine-2-carboxylic acid (3-fluoro-phenyl)-amide]",> 5.30,,
"CN(C)c1ccnc2sc(C(N)=O)c(N)c12 [Compound 166, 3-Amino-4-dimethylamino-thieno[2,3-b]pyridine-2-carboxylic acid amide]",,,"pEC50 (Vero, 48 h): < 4.60"
"Nc1c(C(=O)Nc2ccccc2Br)sc2nc(-c3ccncc3)ccc12 [Compound 466, 3-amino-N-(2-bromophenyl)-6-(4-pyridyl)thieno[2,3-b]pyridine-2-carboxamide]",,5 to 25,
"Nc1c(C(=O)Nc2nccs2)sc2nc3c(c(-c4ccco4)c12)CCCC3 [Compound 86, 3-Amino-4-furan-2-yl-5,6,7,8-tetrahydro-thieno[2,3-b]quinoline-2-carboxylic acid thiazol-2-ylamide]",4.60 to 5.30,,
"COc1cccc(-c2ccc3c(N)c(C(=O)Nc4ccc(C)cc4C)sc3n2)c1 [Compound 554, 3-amino-N-(2,4-dimethylphenyl)-6-(3-methoxyphenyl)thieno[2,3-b]pyridine-2-carboxamide]",,< 5,
"CN1CCc2nc3sc(C(=O)Nc4ccc(C(F)(F)F)cc4)c(N)c3cc2C1 [Compound 42, 3-Amino-6-methyl-5,6,7,8-tetrahydro-thieno[2,3-b][1,6]naphthyridine-2-carboxylic acid (4-trifluoromethyl-phenyl)-amide]",> 5.30,,
"Nc1c(C(=O)Nc2ccc(O)cc2)sc2nc(-c3ccc(Cl)cc3)ccc12 [Compound 356, 3-amino-6-(4-chlorophenyl)-N-(4-hydroxy-phenyl) thieno [2,3-b]pyridine-2-carboxamide]",,5 to 25,
